Reference: patent US7671251B2, “In vivo assay for neurite outgrowth in zebrafish and its application in drug screening” (Academia Sinica, priority 2005, dated 2010)

Legend:
[1] = system: HBNF-induced neurite outgrowth; test: modified in vivo neurite outgrowth assay in zebrafish embryos, inhibition by injected heparin; conditions: heparin injected into zebrafish embryo at two- or four-cell stage; data not shown
Description: As mentioned above, we modified the in vivo neurite outgrowth assay in zebrafish embryos to investigate the inhibitory effect of heparin or heparan sulfate on HBNF-induced neurite outgrowth by further injection of different dosage of heparin or heparan sulfate into zebrafish embryo at two- or four-cell stage. […] Therefore, the modified assay system also can be used to compare the inhibitory or enhancing effect of HBNF/PTN-induced neurite outgrowth in vivo by heparin and its modified forms, N-syndecan-derived saccharides, and other glycosaminoglycans.

PC12D cells = PC12D cells (Li et al., 2004); cited from earlier work
cultured neurons = cultured neurons / neuronal cells (Raulo et al., 1994; Kinnunen et al., 1996; Rauvala et al., 1997); cited from earlier work
[2] = system: NGF-induced neurite outgrowth; conditions: Feng et al., 2004; cited from earlier work
[3] = system: fluorescent blood vessels; conditions: transgenic fluorescent embryos (Parng et al., 2002); cited from earlier work
[4] = system: GFP-labeled neurons in zebrafish embryos; test: in vivo neurite outgrowth promotion assay, expression construct coinjected with pHuC-GFP into zebrafish embryos; parameters: species or system Zebrafish (Danio rerio); conditions: expression construct coinjected with pHuC-GFP at one-cell stage; observed at 48 or 72 hpf
Procedure: The expression construct pcDNA-HBNF-HA and pHuC-GFP (panels 2, 5-7) were coinjected into zebrafish embryos at 1-cell stage. Similar injection of pHuC-GFP alone (panel 1) was used as control. Zebrafish embryos at 72 h postfertilization with GFP fluorescence were selected for image analysis. Embryos are shown as lateral view with anterior to the left. Experiments were repeated at least three times and at least 100 fertilized eggs were used for injection of expression constructs at each time. Four representative patterns with significant enhancement of neurite outgrowth (panels 2, 5-7) were shown. Images of bright field and fluorescence were merged and shown in panels 1, 2, and 5-7, while fluorescence images only in panels 3, 4, 8-10. Higher magnification of two regions marked with yellow boxes in panel 2 was shown in panel 3 and 4, respectively. N, notochord; DF, dorsal fin; VF, ventral fin. Scale bars represent 100 μm.
The expression construct pcDNA-NGF-HA and pHuC-GFP were coinjected into zebrafish embryos at 1-cell stage. Similar injection of pHuC-GFP alone was used as control. Zebrafish embryos at 72 hpf with GFP fluorescence were selected for image analysis. Embryos are shown as lateral view with anterior to the left. Images of bright field and fluorescence were merged and shown in panel 1, while fluorescence images only in panel 2. Higher magnification of the head region and tail region with significant neurite outgrowth in panel 2 was shown in panels 3 and 4, respectively.
The expression construct pGFAP-GDNF-HA and pHuC-GFP were coinjected into zebrafish embryos at 1-cell stage. Similar injection of pHuC-GFP alone was used as control. Zebrafish embryos at 48 hpf with GFP fluorescence were selected for image analysis. […] Images of bright field and fluorescence were merged and shown in panel 1, while fluorescence images only in panel 2. […]
Zebrafish (Danio rerio) were maintained at 28° C. on a 14 h-light/10 h-dark cycle. Embryos were incubated at 28° C. and different developmental stages were determined according to the description in Zebrafish Book (Westerfield, 1995). […]

[5] = system: neuro2A neuroblastoma cells; conditions: Hiwasa et al., 1997; cited from earlier work
[6] = infused directly in putamen (Gill et al., 2003); cited from earlier work
PC12 cells = test: neurite outgrowth in PC12 cells transfected with pcDNA-HBNF-HA; format: cell-based, rat; conditions: transfected HBNF cDNA under CMV promoter, without NGF stimulation, 72 h posttransfection

In the case of heparin, the “inhibitory effect on HBNF-induced neurite outgrowth” value [1] is reported as “inhibit HBNF-induced neurite outgrowth”.

In the case of `CC(=O)O[C@@H]1[C@@H](O)[C@H](C)O[C@@H](OC[C@H]2O[C@@H](Oc3cc(O)c4c(=O)cc(-c5ccc(O)cc5)oc4c3)[C@H](O)[C@@H](O)[C@@H]2O)[C@@H]1O` [Compound 2, apigenin 7-O-alpha-L-3-O-acetylrhamnopyranosyl-(1→6)-beta-D-glucopyranoside], the “enhancing activity of nerve growth factor-mediated neurite outgrowth” value (PC12D cells) is listed as “enhancing activity”.

In the case of low molecular weight heparin, the “inhibition of HBNF/PTN-induced neurite outgrowth” value (cultured neurons) is listed as “more potent inhibition”.

For `COC(=O)[C@]1(O)C[C@H]2O[C@]1(C)n1c3ccc(O)c(N)c3c3c4c(c5c6ccccc6n2c5c31)C(=O)NC4=O` [Indocarbazostatin D], the “inhibition of NGF-induced neurite outgrowth” value [2] is listed as “inhibitors of NGF-induced neurite outgrowth”.

In the case of `CC(=O)O[C@@H]1[C@@H](O)[C@H](C)O[C@@H](OC[C@H]2O[C@@H](Oc3cc(O)c4c(=O)cc(-c5ccc(O)cc5)oc4c3)[C@H](O)[C@@H](O)[C@@H]2O)[C@@H]1OC(C)=O` [Compound 3, apigenin 7-O-alpha-L-2,3-di-O-acetylrhamnopyranosyl-(1→6)-beta-D-glucopyranoside], the “enhancing activity of nerve growth factor-mediated neurite outgrowth” value (PC12D cells) is listed as “enhancing activity”.

For `COC(=O)[C@]1(O)C[C@H]2O[C@]1(C)n1c3ccc(O)cc3c3c4c(c5c6ccccc6n2c5c31)C(=O)NC4=O` [Indocarbazostatin C, Indocarbazostatins C], the “inhibition of NGF-induced neurite outgrowth” value [2] is given as “inhibitors of NGF-induced neurite outgrowth”.

In the case of `Cc1[nH]c(/C=C2\C(=O)Nc3ccccc32)c(C)c1CCC(=O)O` [SU-6668], the inhibition of angiogenesis [3] is listed as “inhibit angiogenesis”.

B1: zebrafish GDNF: zebrafish glial-derived neurotrophic factor expressed in glia cells from pGFAP-GDNF-HA (protein, UniProt Q98TU0 90-235, looked up)
Glial cell line-derived …: SSDVEPQMKRDRVRQKAAANTEKSGGRGRGERKRSRGRARSRDDRVKGQGRGCLLKEIHLNVTDLDLGYRTKEELIFRYCSGPCHDAETNYDKILNNLTHNKKLDKDTPSRTCCRPIAFDDDISFLDDSLEYHTLKKHSAKKCACV
modifications: HA tag
notes: zebrafish glial-derived neurotrophic factor expressed in glia cells from pGFAP-GDNF-HA
For B1, the “enhancement of neurite outgrowth in zebrafish embryos” value (from here on “enhancement of neurite outgrowth”) [4] was “induce extensive neurite outgrowth”.

B2: zebrafish NGF: zebrafish nerve growth factor expressed from pCMV-NGF-HA (protein, UniProt Q6YBR5 77-194, looked up)
Nerve growth factor: KAGPPQHRGVYSVCESISHWEGNKTKATDITGNEVTVLPDVIINNSKKKQYFFETTCSSGRTGGSGCLGIDARHWNSYCTNSHTFVRALTSFKNLVAWRLIRINVACVCVLSRKSWRA
modifications: HA tag
notes: zebrafish nerve growth factor expressed from pCMV-NGF-HA
For B2, the “enhancement of neurite outgrowth” value [4] was “induce extensive neurite outgrowth”.

B3: recombinant GDNF: recombinant glial-derived neurotrophic factor (Hiwasa et al., 1997) (protein, UniProt P39905 78-211, looked up)
Glial cell line-derived …: SPDKQMAVLPRRERNRQAAAANPENSRGKGRRGQRGKNRGCVLTAIHLNVTDLGLGYETKEELIFRYCSGSCDAAETTYDKILKNLSRNRRLVSDKVGQACCRPIAFDDDLSFLDDNLVYHILRKHSAKRCGCI
In the case of B3, the “neurite outgrowth of neuro2A neuroblastoma cells” value [5] is given as “induce neurite outgrowth”.

B4: GDNF: glial-derived neurotrophic factor infused directly in putamen in a clinical trial (protein, UniProt P39905 78-211, looked up)
Glial cell line-derived …: SPDKQMAVLPRRERNRQAAAANPENSRGKGRRGQRGKNRGCVLTAIHLNVTDLGLGYETKEELIFRYCSGSCDAAETTYDKILKNLSRNRRLVSDKVGQACCRPIAFDDDLSFLDDNLVYHILRKHSAKRCGCI
In the case of B4, the side-effects [6] is listed as “does not have significant side-effects” and the “treatment effect in Parkinson disease” value [6] is listed as “effective treatment for Parkinson disease”.

B5: zebrafish HBNF: zebrafish heparin-binding neurotrophic factor (SEQ ID NO: 1) expressed from pcDNA-HBNF-HA (protein)
chain: MQQQWVCVALLALLTVTATLADGGKTEKQGKKERKSDCGEWQWSVCVANEGDCGLGIREGTRSGNDCKQTIKTQRCKIPCNWKKQFGGECKYDFQAWGECDSTTGMKTRTGVLKRALMDANCPNTVSATKPCGKPKTKMQDSQKPKRDGKKKERNPTD
modifications: HA tag; Danio rerio
For B5, the “neurite outgrowth in PC12 cells” value (PC12 cells) was “induce significant neurite outgrowth” and the “enhancement of neurite outgrowth” value [4] was “enhance extensive neurite outgrowth”.
